Assay results taken from ChEMBL document CHEMBL4024780, “Discovery of Potent and Selective Allosteric Inhibitors of Protein Arginine Methyltransferase 3 (PRMT3)” (J Med Chem, 2018).

What was measured:
[1] = target: T1, Protein arginine N-methyltransferase 3 (Homo sapiens, UniProt O60678)
Description: Inhibition of PRMT3 (unknown origin) using C-terminally biotinylated histone H4 as substrate in presence of [3H]S-adenosylmethionine by scintillation proximity assay

[2] = target: T1, Protein arginine N-methyltransferase 3; assay: Binding affinity to beta galactosidase fused human PRMT3 (211 to 531 residues) expressed in human HEK293 cells after 6 hrs by InCELL hunter assay; assay type: cell-based
[3] = target: T1, Protein arginine N-methyltransferase 3; assay: Binding affinity to beta galactosidase fused human PRMT3 (211 to 531 residues) expressed in human A549 cells after 6 hrs by InCELL hunter assay; assay type: cell-based
[4] = target: T1, Protein arginine N-methyltransferase 3; assay: Inhibition of FLAG-tagged wild type human PRMT3 expressed in HEK293 cells assessed as decrease in exogenous H4R3 dimethylation level using GFP-tagged histone H4 as substrate after 24 hrs by Western blot analysis; assay type: cell-based

T1 sequence (O60678 whole entry, the tested form may be a part): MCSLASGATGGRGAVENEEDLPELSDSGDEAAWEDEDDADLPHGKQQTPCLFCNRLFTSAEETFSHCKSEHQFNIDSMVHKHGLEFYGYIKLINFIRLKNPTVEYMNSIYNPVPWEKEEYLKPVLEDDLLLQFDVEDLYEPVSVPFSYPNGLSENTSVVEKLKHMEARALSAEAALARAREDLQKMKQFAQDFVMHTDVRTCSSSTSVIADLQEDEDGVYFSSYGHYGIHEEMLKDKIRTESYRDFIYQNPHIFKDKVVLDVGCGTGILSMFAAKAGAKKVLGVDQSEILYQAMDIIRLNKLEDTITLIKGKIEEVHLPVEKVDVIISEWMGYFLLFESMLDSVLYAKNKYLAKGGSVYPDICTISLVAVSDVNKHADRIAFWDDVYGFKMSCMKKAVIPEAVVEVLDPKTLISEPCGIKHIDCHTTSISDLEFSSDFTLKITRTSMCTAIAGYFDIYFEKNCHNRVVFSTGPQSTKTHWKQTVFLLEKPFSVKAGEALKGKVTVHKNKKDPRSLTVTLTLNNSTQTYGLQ

Structure (SMILES)	IC50 [1] [µM]	EC50 [2] [µM]	EC50 [3] [µM]	IC50 [4] [µM]
O=C(NCCC1CC1)Nc1ccc2cnccc2c1	> 8	–	–	–
CN1CCN(C(=O)CNC(=O)Nc2ccc3cnccc3c2)CC1	> 1.9	–	–	–
O=C(CNC(=O)Nc1ccc2cnccc2c1)NC1CC1	0.158	–	–	–
O=C(NCC(=O)N1C2CCCC1CC2)Nc1ccc2cnccc2c1	0.022	–	–	–
O=C(NCC(=O)N1C2CCC1CC2)Nc1ccc2cnccc2c1	0.046	–	–	–
O=C(NCC(=O)N1CCCCC1)Nc1ccc2cnccc2c1	0.084	–	–	–
CON(C)C(=O)CNC(=O)Nc1ccc2cnccc2c1	0.476	–	–	–
O=C(NCCc1ccccc1)Nc1ccc2cnccc2c1	0.833	–	–	–
O=C(NCC(=O)N1CC(F)(F)C(F)(F)C1)Nc1ccc2cnccc2c1	0.024	3.1	2.7	0.24
O=C(NCC(=O)N1CCCC1)Nc1cc2ccncc2cc1F	0.019	2.7	1.6	–
O=C(CNC(=O)Nc1ccc2cnccc2c1)NC1CCCCC1	0.477	–	–	–
